Key:
RXRα [1] = biological target: T1, RXRα (Homo sapiens, UniProt P19793); experiment: RXRα activation (transactivation); assay type: cell-based; conditions: Table 1; read-out: Activation ED50, RXRα
T1 sequence (P19793 1-462): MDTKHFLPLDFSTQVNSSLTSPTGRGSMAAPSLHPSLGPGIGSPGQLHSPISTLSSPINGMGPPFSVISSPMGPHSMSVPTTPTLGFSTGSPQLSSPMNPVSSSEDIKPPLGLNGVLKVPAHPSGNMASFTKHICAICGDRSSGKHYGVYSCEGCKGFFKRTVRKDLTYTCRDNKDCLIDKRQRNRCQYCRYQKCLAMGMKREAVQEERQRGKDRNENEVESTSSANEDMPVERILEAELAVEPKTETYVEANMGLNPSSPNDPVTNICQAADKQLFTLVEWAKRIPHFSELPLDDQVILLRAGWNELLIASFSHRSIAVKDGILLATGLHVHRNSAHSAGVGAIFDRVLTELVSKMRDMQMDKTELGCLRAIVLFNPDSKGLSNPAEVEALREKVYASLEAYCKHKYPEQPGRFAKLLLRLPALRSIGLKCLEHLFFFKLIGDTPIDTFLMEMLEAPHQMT
Excerpt: (§1) Methods essentially as described in those publications were used to determine the binding and transactivation properties of retinoids reported in the Examples herein.

Rhino mouse utricles = experiment: Rhino mouse utricle reduction activity; assay type: in vivo, Rhino mice; conditions: topical; for Utricle Size: 3 weeks; for Utricle size % Change from Control: ns = not statistically significant, others p<0.05
Method: Compounds were dissolved in 100% acetone and stored at 4° C. for the duration of the experiment under nitrogen. […] One day after the last dose, the mice were sacrificed by CO2 inhalation. […] The epidermis was then separated from the dermis.
The samples were kept in each of the above solutions for 2 hours. The skin samples were removed from the xylene and mounted on glass microscope slides. Image analysis, using the Ultimage image analysis software, was used to determine the mean diameter and area of utricles. Approximately 5 fields per sample were examined, for an average of 150 utricles per mouse measured.

RARα = biological target: T2, RARα (Homo sapiens, UniProt P10276); experiment: RARα binding; conditions: Table 2; read-out: RARα binding IC50
T2 sequence (P10276 1-462): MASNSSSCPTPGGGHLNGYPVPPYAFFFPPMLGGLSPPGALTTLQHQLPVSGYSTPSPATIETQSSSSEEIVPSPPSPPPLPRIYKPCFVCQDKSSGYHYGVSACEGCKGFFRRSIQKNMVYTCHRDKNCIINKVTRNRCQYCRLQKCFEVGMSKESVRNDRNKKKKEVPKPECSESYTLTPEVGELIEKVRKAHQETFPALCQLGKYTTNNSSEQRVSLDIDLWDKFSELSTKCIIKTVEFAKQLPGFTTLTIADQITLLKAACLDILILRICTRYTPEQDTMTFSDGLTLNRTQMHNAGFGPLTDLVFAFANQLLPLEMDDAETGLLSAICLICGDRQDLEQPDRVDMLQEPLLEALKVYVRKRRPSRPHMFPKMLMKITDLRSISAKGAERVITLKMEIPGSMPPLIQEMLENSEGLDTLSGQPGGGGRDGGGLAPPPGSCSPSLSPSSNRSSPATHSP
Excerpt: as §1

[2] = test system: Hamster Ear Sebaceous Gland; experiment: Effect on size of sebaceous glands of Golden Syrian hamsters; assay type: in vivo; set-up: Sebaceous Gland Size: unit not given here; conditions: 4 weeks topical dosing
Method: Charles River Golden Syrian male hamsters were given the desired dose in acetone. The compounds were stored at 4° C. protected from light. Fresh solutions were made up weekly.
Hamsters were dosed daily for five days, rested for two days, and dosed again for five days until 20 doses were given. The volume of solution was 50 microliters per ear.
Hamsters were sacrificed by CO2 inhalation, and the ears removed for histological evaluation. One ear was removed and the ventral surface separated from the rest of the ear. A 2 mm punch was removed 5 mm from the tip of the ear and stained in 0.1 % Sudan Black B dissolved in 100% propylene glycol overnight. After destaining, the size of sebaceous glands was quantified with a Donsanto Image Analysis System.
Data are given as the average area of 80-120 sebaceous glands per dose, as percent of the control (solvent-treated) sections.

RXRα [3] = biological target: T1, RXRα; experiment: RXRα binding; conditions: Table 2
Excerpt: as §1

HL-60 cells = experiment: HL-60 differentiation (NBT reduction); assay type: cell-based, human
Method: Under the influence of retinoids, HL-60 cells (a human myeloid leukemia cell line) differentiate into granulocytes. This differentiation of HL-60 cells into granulocytes is mediated by RARα, and so provides the basis for the use of retinoids to treat leukemia.
Retinoid-induced differentiation of HL-60 cells was assayed by measuring their oxidative burst potential via the reduction of NBT (Nitroblueterstazolium) [Pick et al., J. Reticuloendothelial Soc., 30:581-593 (1981)].
HL-60 cells were maintained in RPMI 1640 medium supplemented with 10% FCS, 2mM L-glutamine, ImM sodium pyruvate, 1% non-essential amino acids, 50 U/ml penicillin and 50 μg/ml streptomycin (=RPMI/FCS).
30,000 cells/[…] of RPMI/FCS were seeded into flat-bottomed microtiter wells. 10 μl of retinoids diluted in complete medium were added at the same time to yield final concentrations betweeen 10^-11 and 10^-6 M (stock solutions of 10^-2 M in ethanol were kep at -20° C. and protected from light). After 3 days, the medium was removed with a multichannel pipette and replaced with 100 μl of NBT solution (1 mg/ml in PBS with 200 nM phorbol myristate acetate (PMA). Following an additional hour incubation at 37° C. the NBT solution was removed and 100 μl of 10% SDS in 0.01 N HCl was added. The amount of the reduced NBT was quantified photometrically at 540 nm using an automated plate reader. The mean of 3 wells was calculated. S.E.M. were between 5 and 10%.

SMILES: CC1=C(/C=C/C2=C(/C=C/C(C)=C/C(=O)O)CCCC2)C(C)(C)CCC1 [Example 4, (2E,4E)-3-Methyl-5-(2-((E)-2(2,6,6-trimethyl-1-cyclohexen-1-yl)ethenyl)-1-cyclohexen-1-yl)-2,4-pentadienoic acid]
- EC50 (RXRα [1]): 1.7 nM
- Utricle Size (Rhino mouse utricles; 0.1 μg/day): 9843 ± 565 μm^2 / utricle
- Utricle size % Change from Control (Rhino mouse utricles; 0.1 μg/day): +1%
- Utricle Size (Rhino mouse utricles; 1 μg/day): 9491 ± 507 μm^2 / utricle
- Utricle size % Change from Control (Rhino mouse utricles; 1 μg/day): -3%
- Utricle Size (Rhino mouse utricles; 10 μg/day): 8951 ± 964 μm^2 / utricle
- Utricle size % Change from Control (Rhino mouse utricles; 10 μg/day): -8%
- Utricle Size (Rhino mouse utricles; 100 μg/day): 5916 ± 992 μm^2 / utricle
- Utricle size % Change from Control (Rhino mouse utricles; 100 μg/day): -39%
- IC50 (RARα): > 10000 nM
- Sebaceous Gland Size ([2]; 1 μg/day): 13237 ± 1491
- Sebaceous gland size % Change from Control ([2]; 1 μg/day, ns = not statistically significant): -20%
- Sebaceous Gland Size ([2]; 10 μg/day): 17046 ± 4667
- Sebaceous gland size % Change from Control ([2]; 10 μg/day, ns = not statistically significant): +3%
- Sebaceous Gland Size ([2]; 100 μg/day): 13043 ± 1577
- Sebaceous gland size % Change from Control ([2]; 100 μg/day): -21%
- IC50 (RXRα [3]): 92 nM
- activity as inducer of HL-60 differentiation compared with all-trans retinoic acid (HL-60 cells; FIG. 1): clearly less active
- HL-60 differentiation activity by itself at potentiating concentrations (HL-60 cells; FIGS. 2 and 3, alone): not active by itself
- activity as inducer of HL-60 differentiation (HL-60 cells; ×10^-6 M, alone): virtually inactive
